Values quoted from earlier work in PMC7155743 (The journal of physical chemistry. B, 2019).
“Also recorded” adds a separate entry of the source.

Legend:
[1] = not given; remark: listed apart in the source
[2] = aqueous solution

solubility (qualitative)	appearance of peptide in water at 1 mg/mL [1]	Substance	aggregation state by DOSY [2]	fibrillization after incubation in water for 3 h (water, 3 h)
insoluble		K2Q9PGQ4AQ4PGQ9PGQ9K2 [PGQ9A]		
	clear solutions	D2Q10K2 [NDQ10]	predominately monomeric; also recorded: predominantly monomeric	
	clear solutions	D2Q10K2 [DQ10]	predominately monomeric; also recorded: predominantly monomeric	
		K2Q9PGQ4AQ4PGQ9PGQ9K2 [NDPGQ9A]		do not observe signs of NDPGQ9A fibrillization
